Among the data in patent US4885305A, “Nasal compositions” (Yamanouchi Pharmaceutical Co., Ltd., priority 1984, dated 1989) are AUC(0-t) and Tmax values, retold here.

The series is described as follows: Bioavailability trial of nicardipine in rhesus monkeys: nasal composition compared with oral route (gastric tube), plasma levels by gas chromatography. Type of series: in vivo. Particulars: rhesus monkey; for AUC(0-t) at 24 h: read-out: AUC 0-24 h (area under the curve); for Tmax: read-out: T max (time to obtain C max). As to the method: This activity has been confirmed by standard bioavailability trials wherein nasal pharmaceutical compositions of the invention are compared with other conventional compositions and blood levels of drug are measured. In one trial, a nasal composition of the invention comprising 4 mg nicardipine hydrochloride per ml of distilled water has been administered nasally to rhesus monkeys (weight from 7 to 12 kg). A dose of 0.5 ml of this composition is sprayed each morning into each nostril. Blood samples are taken up 15 minutes, 30 minutes, 1 hour, 2 hours, 3 hours, 4 hours, 6 hours, 8 hours and 24 hours after administration and treated with lithium heparin. The treated blood samples are centrifuged and the concentration of nicardipine in the plasma is determined in conventional manner by converting the nicardipine into a corresponding pyridine derivative and determination by gas chromatographic techniques. The same animals are also treated in another similar trial with orally administered nicardipine at a dose of 20 mg by mean of a gastric tube.

Setting [1] is: oral route (gastric tube), 20 mg.

Where two headings read alike, the source gives them in different places.

Consider `COC(=O)C1=C(C)NC(C)=C(C(=O)OCCN(C)Cc2ccccc2)C1c1cccc([N+](=O)[O-])c1` (stereo not shown) [nicardipine], for which the AUC(0-t) at 24 h (nasal route, 4 mg) turned out to be 192 ± 36.3 ng·h/mL and the AUC(0-t) at 24 h under setting [1] was determined as 457 ± 86.6 ng·h/mL. Further, the Tmax (nasal route, 4 mg) was found to be 0.4 ± 0.1 h and the Tmax under setting [1] was 2.1 ± 0.5 h.
